PMC3124400 (International Journal of Nanomedicine, 2011)

Columns and labels:
[1] = cited from earlier work
[2] = In vitro release by dynamic dialysis method; format: physicochemical; details: dialysis bag control

Row | Time for complete diffusion of CyA in solution across the dialysis bag [2] [h] | Compound | Increase in oral bioavailability ([1]; fenofibrate in fast-dissolving solid dispersion formulation) [fold] | Enhancement of oral bioavailability ([1]; fenofibrate in liposomes containing sodium deoxycholate) [fold]
1 | – | CC(C)OC(=O)C(C)(C)Oc1ccc(C(=O)c2ccc(Cl)cc2)cc1 [fenofibrate] | 4.4 | 5.13
2 | ≤ 1 | Cyclosporine A [CyA] | – | –
